Experimental data as given in patent US12331035B2, “Bicyclic compound and use thereof” (SK BIOPHARMACEUTICALS CO., LTD., priority 2019, dated 2025).
Counter-ions that a name gives are not always drawn.

target: T1, PRMT5-MEP50 enzyme complex (Homo sapiens, UniProt O14744); assay: In vitro PRMT5 enzyme activity assay (methylation of histone H4 arginine H4R3, ELISA absorbance at 450 nm); type: biochemical; details: S-adenosylmethionine, histone H4 peptide, 2 hours at room temperature, 8 points 10 μM to 0.128 nM
T1 construct: purchased BPS Bioscience (USA) 51045
T1 sequence (O14744 2-637 limits assumed): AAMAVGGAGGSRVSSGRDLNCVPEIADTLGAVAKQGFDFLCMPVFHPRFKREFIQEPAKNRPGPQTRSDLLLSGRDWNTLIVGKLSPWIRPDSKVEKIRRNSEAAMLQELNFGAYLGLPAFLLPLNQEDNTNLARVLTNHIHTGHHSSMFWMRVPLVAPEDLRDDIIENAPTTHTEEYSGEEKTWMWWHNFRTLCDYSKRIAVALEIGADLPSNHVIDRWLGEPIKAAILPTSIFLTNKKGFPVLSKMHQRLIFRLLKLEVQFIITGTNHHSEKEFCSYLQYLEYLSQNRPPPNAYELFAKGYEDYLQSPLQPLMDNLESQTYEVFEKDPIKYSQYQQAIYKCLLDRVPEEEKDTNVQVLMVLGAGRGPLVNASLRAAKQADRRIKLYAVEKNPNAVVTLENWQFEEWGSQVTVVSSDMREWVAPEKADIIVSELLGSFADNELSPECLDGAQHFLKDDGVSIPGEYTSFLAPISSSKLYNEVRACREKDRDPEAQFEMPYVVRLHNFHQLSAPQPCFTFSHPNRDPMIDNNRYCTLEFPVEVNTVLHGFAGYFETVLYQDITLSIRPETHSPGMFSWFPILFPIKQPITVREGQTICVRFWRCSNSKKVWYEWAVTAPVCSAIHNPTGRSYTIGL
T1 sequence (Q9BQA1 2-342 partner limits assumed): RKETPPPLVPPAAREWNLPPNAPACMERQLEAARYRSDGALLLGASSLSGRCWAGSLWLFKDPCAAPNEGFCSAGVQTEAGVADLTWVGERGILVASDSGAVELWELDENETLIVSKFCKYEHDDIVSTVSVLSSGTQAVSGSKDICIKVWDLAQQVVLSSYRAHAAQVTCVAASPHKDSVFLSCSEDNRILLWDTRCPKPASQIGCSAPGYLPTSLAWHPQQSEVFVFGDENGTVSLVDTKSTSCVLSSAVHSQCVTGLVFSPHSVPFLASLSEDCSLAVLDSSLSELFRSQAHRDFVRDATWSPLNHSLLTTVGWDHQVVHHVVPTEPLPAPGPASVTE
Protocol: Method for Measuring Enzyme Activity
In vitro assay: PRMT5-MEP50 enzyme complex, cofactor S-adenosylmethionine (SAM) and histone H4 peptide were reacted in vitro, and methylation of arginine (H4R3) —which is the third amino acid of histone H4—was measured in order to measure the enzyme activity of PRMT5.
Reagents: PRMT5-MEP50 enzyme complex (Catalog No. 51045), blocking buffer (52100-B), histone methyltransferase reaction buffer 2 (4×HMT assay buffer 2, Catalog No. 52170), and primary antibody (primary antibody 4-3, Catalog No. 52150) were purchased from BPS Bioscience (USA). The histone H4 peptide (1-20 amino acids) was custom made by Komabiotech (Korea) and used. S-adenosylmethionine was purchased from NEB (New England Biolabs, USA, Catalog No. B9003S). Plates for coating histone H4 peptide, washing buffer and color development reagent were purchased from the following vendors: Plate (Immobilizer™-Amino Plate, NUNC, Denmark, Catalog No. 436023), carbonate-bicarbonate buffer (Sigma-Aldrich, USA, Catalog No. C3041), washing buffer (10×TBST, Biosesang, Korea, Catalog No. T2005), TMB ELISA substrate (Abcam, UK, Catalog No. ab210902), horseradish peroxidase (HRP)-conjugated antibody (Abcam, UK, Catalog No. ab6721).
Experimental procedure: The histone H4 peptide was diluted with carbonate-bicarbonate buffer and prepared to 100 μg/mL, and then dispensed onto the plate per 100 μL and reacted at 37° C. for 1 hour. PRMT5-MEP50 enzyme complex and S-adenosylmethionine were diluted with histone methyltransferase reaction buffer to prepare 5 μg/mL and 2 μM, respectively, and then 20 μL of PRMT5-MEP50 enzyme complex and 25 μL of S-adenosylmethionine were dispensed onto the plate prepared above. 5 μL of the compound diluted with 10% dimethyl sulfoxide solution was added thereto and reacted at room temperature for 2 hours (final volume=50 μL). The concentration of the compound was diluted 1:5 from 10 μM until the lowest concentration of 0.128 nM, and 8 points were used for the test. After preparing the primary antibody by diluting 1:2000 with blocking buffer, 100 μL was added to the plate and reacted at room temperature for 1 hour. After preparing horseradish peroxidase-conjugated antibody by diluting 1:10,000 with blocking buffer, 100 μL was added to the plate and reacted at room temperature for 1 hour. 100 μL of TMB substrate was added and reacted for 3 minutes at room temperature, and 100 μL of 1 N sulfuric acid was then added to terminate the reaction. Then, the absorbance at 450 nm was measured to calculate the IC50 value of the compound. (+++: 1 to 100 nM, ++: greater than 100 to 1,000 nM, +: greater than 1,000 to 10,000 nM)

Row | SMILES | IC50 [nM]
1 | O=C(Nc1ccc2c(c1)CCN(C[C@H](O)CN1CCc3ccccc3C1)C2=O)c1cccnc1 [Example 26, N-[2-[(2R)-3-(3,4-dihydro-1H-isoquinolin-2-yl)-2-hydroxy-propyl]-1-oxo-3,4-dihydroisoquinolin-6-yl]pyridine-3-carboxamide] | 1 to 100
2 | O=C1c2ccc(NC3CCNCC3)cc2CCN1C[C@H](O)CN1CCc2ccccc2C1 [Example 34, 2-[(2R)-3-(3,4-dihydro-1H-isoquinolin-2-yl)-2-hydroxy-propyl]-6-(4-piperidylamino)-3,4-dihydroisoquinolin-1-one] | 1000 to 10000
3 | O=C1c2ccc(N3CC4CC3CO4)cc2CCN1C[C@H](O)CN1CCc2ccccc2C1 (stereo partly drawn) [Example 73, 2-[(2R)-3-(3,4-dihydro-1H-isoquinolin-2-yl)-2-hydroxy-propyl]-6-(2-oxa-5-azabicyclo[2.2.1]heptan-5-yl)-3,4-dihydroisoquinolin-1-one] | 100 to 1000
4 | CC1(C)CN(C[C@H](O)CN2CCc3ccccc3C2)C(=O)c2ccc(N3CCC(N4CCCC4)CC3)cc21 [Example 124, 2-[(2R)-3-(3,4-dihydro-1H-isoquinolin-2-yl)-2-hydroxy-propyl]-4,4-dimethyl-6-(4-pyrrolidin-1-yl-1-piperidyl)-3H-isoquinolin-1-one] | 1 to 100
5 | O=C1c2ccc(NC3CCCNC3)cc2CCN1C[C@H](O)CN1CCc2ccccc2C1 (stereo partly drawn) [Example 77, 2-[(2R)-3-(3,4-dihydro-1H-isoquinolin-2-yl)-2-hydroxy-propyl]-6-(3-piperidylamino)-3,4-dihydroisoquinolin-1-one] | 100 to 1000
6 | O=C(CO)Nc1ccc2c(c1)CCN(C[C@H](O)CN1CCc3ccccc3C1)C2=O [Example 41, N-[2-[(2R)-3-(3,4-dihydro-1H-isoquinolin-2-yl)-2-hydroxy-propyl]-1-oxo-3,4-dihydroisoquinolin-6-yl]-2-hydroxy-acetamide] | 1 to 100
7 | CN1CCCC(Oc2ccc3c(c2)CCN(C[C@H](O)CN2CCc4ccccc4C2)C3=O)C1 (stereo partly drawn) [Example 139, 2-[(2R)-3-(3,4-dihydro-1H-isoquinolin-2-yl)-2-hydroxypropyl]-6-[(1-methyl-3-piperidyl)oxy]-3,4-dihydroisoquinolin-1-one] | 1 to 100
8 | CC(C)(O)CNc1ccc2c(c1)CCN(C[C@H](O)CN1CCc3ccccc3C1)C2=O [Example 25, 2-[(2R)-3-(3,4-dihydro-1H-isoquinolin-2-yl)-2-hydroxy-propyl]-6-[(2-hydroxy-2-methyl-propyl)amino]-3,4-dihydroisoquinolin-1-one] | 1 to 100
9 | CCN(CC)C1CCN(c2ccc3c(c2)C(C)(C)CN(C[C@H](O)CN2CCc4ccccc4C2)C3=O)CC1 [Example 123, 6-[4-(diethylamino)-1-piperidyl]-2-[(2R)-3-(3,4-dihydro-1H-isoquinolin-2-yl)-2-hydroxy-propyl]-4,4-dimethyl-3H-isoquinolin-1-one] | 100 to 1000
10 | O=C1c2ccc(NCC3CCNCC3)cc2CCN1C[C@H](O)CN1CCc2ccccc2C1 [Example 31, 2-[(2R)-3-(3,4-dihydro-1H-isoquinolin-2-yl)-2-hydroxy-propyl]-6-(4-piperidylmethylamino)-3,4-dihydroisoquinolin-1-one] | 1 to 100
11 | CC(C)(C)OC(=O)N1CC2CC1CN2c1ccc2c(c1)CCN(C[C@H](O)CN1CCc3ccccc3C1)C2=O (stereo partly drawn) [Example 72, tert-butyl 5-[2-[(2R)-3-(3,4-dihydro-1H-isoquinolin-2-yl)-2-hydroxy-propyl]-1-oxo-3,4-dihydroisoquinolin-6-yl]-2,5-diazabicyclo[2.2.1]heptane-2-carboxylate] | 100 to 1000
12 | O=C1c2ccc(C3=CCNCC3)cc2CCN1C[C@H](O)CN1CCc2ccccc2C1 [Example 57, 2-[(2R)-3-(3,4-dihydro-1H-isoquinolin-2-yl)-2-hydroxy-propyl]-6-(1,2,3,6-tetrahydropyridin-4-yl)-3,4-dihydroisoquinolin-1-one] | 1 to 100
13 | O=C1c2ccc(OC3CCCN(CCF)C3)cc2CCN1C[C@H](O)CN1CCc2ccccc2C1 (stereo partly drawn) [Example 140, 2-[(2R)-3-(3,4-dihydro-1H-isoquinolin-2-yl)-2-hydroxypropyl]-6-[[1-(2-fluoroethyl)-3-piperidyl]oxy]-3,4-dihydroisoquinolin-1-one] | 100 to 1000
14 | CCN1CCC(Oc2ccc3c(c2)C(C)(C)CN(C[C@H](O)CN2CCc4ccccc4C2)C3=O)CC1 [Example 131, 2-[(2R)-3-(3,4-dihydro-1H-isoquinolin-2-yl)-2-hydroxy-propyl]-6-[(1-ethyl-4-piperidyl)oxy]-4,4-dimethyl-3H-isoquinolin-1-one] | 1 to 100

Next, values leading:

Row | IC50 [nM] | SMILES
15 | 100 to 1000 | O=C1c2ccc(N3CCC(N4CCCCC4)CC3)cc2CCN1C[C@H](O)CN1CCc2ccccc2C1 [Example 107, 2-[(2R)-3-(3,4-dihydro-1H-isoquinolin-2-yl)-2-hydroxy-propyl]-6-[4-(1-piperidyl)-1-piperidyl]-3,4-dihydroisoquinolin-1-one]
16 | 100 to 1000 | CC(=O)N1CCN(c2ccc3c(c2)CCN(C(C)C(O)CN2CCc4ccccc4C2)C3=O)CC1 (centres unmarked) [Example 129, 6-(4-acetylpiperazin-1-yl)-2-[3-(3,4-dihydro-1H-isoquinolin-2-yl)-2-hydroxy-1-methyl-propyl]-3,4-dihydroisoquinolin-1-one]
17 | 100 to 1000 | CCC(=O)N1CCN(c2ccc3c(c2)CCN(C[C@H](O)CN2CCc4ccccc4C2)C3=O)CC1 [Example 69, 2-[(2R)-3-(3,4-dihydro-1H-isoquinolin-2-yl)-2-hydroxy-propyl]-6-(4-propanoylpiperazin-1-yl)-3,4-dihydroisoquinolin-1-one]
18 | 100 to 1000 | O=C1c2ccc(N3CCCCC3=O)cc2CCN1C[C@H](O)CN1CCc2ccccc2C1 [Example 21, 2-[(2R)-3-(3,4-dihydro-1H-isoquinolin-2-yl)-2-hydroxy-propyl]-6-(2-oxo-1-piperidyl)-3,4-dihydroisoquinolin-1-one]
19 | 100 to 1000 | O=C1c2ccc(N3CCN(C4CCOCC4)CC3)cc2CCN1C[C@H](O)CN1CCc2ccccc2C1 [Example 122, 2-[(2R)-3-(3,4-dihydro-1H-isoquinolin-2-yl)-2-hydroxy-propyl]-6-(4-tetrahydropyran-4-ylpiperazin-1-yl)-3,4-dihydroisoquinolin-1-one]
20 | 1 to 100 | CC(=O)N1CCCC(Nc2ccc3c(c2)CCN(C[C@H](O)CN2CCc4ccccc4C2)C3=O)C1 (stereo partly drawn) [Example 93, 6-[(1-acetyl-3-piperidyl)amino]-2-[(2R)-3-(3,4-dihydro-1H-isoquinolin-2-yl)-2-hydroxy-propyl]-3,4-dihydroisoquinolin-1-one]
21 | 100 to 1000 | CC1CC(C)CN(c2ccc3c(c2)CCN(C[C@H](O)CN2CCc4ccccc4C2)C3=O)C1 (stereo partly drawn) [Example 28, 2-[(2R)-3-(3,4-dihydro-1H-isoquinolin-2-yl)-2-hydroxy-propyl]-6-(3,5-dimethyl-1-piperidyl)-3,4-dihydroisoquinolin-1-one]
22 | 1 to 100 | O=C1c2ccc(N3CCCC(CO)C3)cc2CCN1C[C@H](O)CN1CCc2ccccc2C1 (stereo partly drawn) [Example 36, 2-[(2R)-3-(3,4-dihydro-1H-isoquinolin-2-yl)-2-hydroxy-propyl]-6-[3-(hydroxymethyl)-1-piperidyl]-3,4-dihydroisoquinolin-1-one]
23 | 100 to 1000 | CCN(CC)C1CCN(c2ccc3c(c2)CCN(C[C@H](O)CN2CCc4ccccc4C2)C3=O)CC1 [Example 118, 6-[4-(diethylamino)-1-piperidyl]-2-[(2R)-3-(3,4-dihydro-1H-isoquinolin-2-yl)-2-hydroxy-propyl]-3,4-dihydroisoquinolin-1-one]
24 | 1000 to 10000 | CC1(C)CN(C[C@H](O)CN2CCc3ccccc3C2)C(=O)c2ccc(N3CCN(C=O)CC3)cc21 [Example 130, 4-[2-[(2R)-3-(3,4-dihydro-1H-isoquinolin-2-yl)-2-hydroxy-propyl]-4,4-dimethyl-1-oxo-3H-isoquinolin-6-yl]piperazine-1-carbaldehyde; hydrochloride]
25 | 1 to 100 | CC(=O)N1CCC(Nc2ccc3c(c2)CCN(C[C@H](O)CN2CCc4ccccc4C2)C3=O)CC1 [Example 32, 6-[(1-acetyl-4-piperidyl)amino]-2-[(2R)-3-(3,4-dihydro-1H-isoquinolin-2-yl)-2-hydroxy-propyl]-3,4-dihydroisoquinolin-1-one]
26 | 100 to 1000 | CN(C)CCOC1CCN(c2ccc3c(c2)CCN(C[C@H](O)CN2CCc4ccccc4C2)C3=O)CC1 [Example 119, 2-[(2R)-3-(3,4-dihydro-1H-isoquinolin-2-yl)-2-hydroxy-propyl]-6-[4-[2-(dimethylamino)ethoxy]-1-piperidyl]-3,4-dihydroisoquinolin-1-one]
